Among the data in ChEMBL document CHEMBL4017441, “Mitigating the inhibition of human bile salt export pump by drugs: opportunities provided by physicochemical property modulation, in silico modeling, and structural modification” (Drug Metab Dispos, 2012) are IC50 values, retold here.

Where a name gives a salt, the structure may show the parent alone.

The target of the experiment is Bile salt export pump (Homo sapiens, UniProt O95342). The class given is ADME.
Regarding `CCc1nc(N)nc(N)c1-c1ccc(Cl)cc1` [PYRIMETHAMINE], the concentration for half-maximal inhibition (IC50) stood at 200 µM.
The same measure for `CN1CC[C@@]2(C)c3cc(OC(=O)N4CCc5ccccc5C4)ccc3N(C)[C@@H]12` [QUILOSTIGMINE]: under 10 µM; for `CCN(CC)CCCC(C)Nc1c2ccc(Cl)cc2nc2ccc(OC)cc12` (stereo not given) [QUINACRINE]: 101 µM; for `C=C[C@H]1C[N@@]2CC[C@H]1C[C@H]2[C@H](O)c1ccnc2ccc(OC)cc12` [QUININE]: 98.8 µM.
Next, `COc1cc(Nc2ncc(F)c(Nc3ccc4c(n3)NC(=O)C(C)(C)O4)n2)cc(OC)c1OC` [R-406]: 197 µM; `C[C@H](NCc1ccc(OCc2ccccc2F)cc1)C(N)=O` [RALFINAMIDE]: 175 µM; `O=C(O)CCn1c2c(c3ccccc31)C[C@H](NS(=O)(=O)c1ccc(F)cc1)CC2` [RAMATROBAN]: 62.4 µM.
`CCC(=O)NCC[C@@H]1CCc2ccc3c(c21)CCO3` [RAMELTEON]: the IC50 was 85 to 85.4 µM.
Next, `CC(Cc1ccccc1)(NC(=O)CN)c1ccccc1` (stereo not given) [REMACEMIDE]: 288 µM; `CCN1CCC[C@H]1CNC(=O)c1c(OC)ccc(Br)c1OC` [REMOXIPRIDE]: under 10 µM; `COC(=O)[C@H]1[C@H]2C[C@@H]3c4[nH]c5cc(OC)ccc5c4CCN3C[C@H]2C[C@@H](OC(=O)c2cc(OC)c(OC)c(OC)c2)[C@@H]1OC` [RESERPINE]: under 10 µM.
On to `Nc1nc2ccc(OC(F)(F)F)cc2s1` [RILUZOLE], for which the IC50 was 139 µM.
The same measure for `Cc1c(C(=O)NN2CCCCC2)nn(-c2ccc(Cl)cc2Cl)c1-c1ccc(Cl)cc1` [RIMONABANT]: under 10 µM; for `CS(=O)(=O)c1ccc(C2=C(c3ccccc3)C(=O)OC2)cc1` [ROFECOXIB]: 95.4 µM.
For `CCCN1CCCC[C@H]1C(=O)Nc1c(C)cccc1C` [ROPIVACAINE], the IC50 was 646 µM.
The same measure for `O=C(O)c1c(Cl)c(Cl)c(Cl)c(Cl)c1-c1c2cc(I)c(=O)c(I)c-2oc2c(I)c(O)c(I)cc12` [ROSE BENGAL SODIUM]: under 10 µM; for `O=[N+]([O-])c1cc([As](=O)(O)O)ccc1O` [ROXARSONE]: over 1000 µM; for `O=C(O)CCCCCCCNC(=O)c1ccccc1O` [SALCAPROZIC ACID]: over 751 µM.
In the case of `OCc1ccccc1O[C@@H]1O[C@H](CO)[C@@H](O)[C@H](O)[C@H]1O` [SALICIN], the IC50 was over 1000 µM.
The same measure for `NC(=O)c1ccccc1O` [SALICYLAMIDE]: over 1000 µM; for `O=C(Oc1ccccc1C(=O)O)c1ccccc1O` [SALSALATE]: over 1000 µM; for `CN1[C@@H]2C[C@@H](OC(=O)[C@H](CO)c3ccccc3)C[C@H]1[C@@H]1O[C@@H]12` [SCOPOLAMINE]: over 1000 µM.
For the compound `CCN(CC)CCNC(=O)c1ccc(NS(C)(=O)=O)cc1` [SEMATILIDE], the 50% inhibitory concentration (IC50) is over 1000 µM.
The same measure for `CC1=C(C)C(=O)C(C(CCCCCC(=O)O)c2ccccc2)=C(C)C1=O` (stereo not given) [SERATRODAST]: under 14.3 µM; for `CN[C@H]1CC[C@@H](c2ccc(Cl)c(Cl)c2)c2ccccc21` [SERTRALINE]: 29.3 µM; for `O=c1[nH]c2c(O)ccc(CCNCCS(=O)(=O)CCCOCCc3ccccc3)c2s1` [SIBENADET]: under 10 µM.
Next, `CO[C@H]1C[C@@H]2CC[C@@H](C)[C@@](O)(O2)C(=O)C(=O)N2CCCC[C@H]2C(=O)O[C@H]([C@H](C)C[C@@H]2CC[C@@H](O)[C@H](OC)C2)CC(=O)[C@H](C)/C=C(\C)[C@@H](O)[C@@H](OC)C(=O)[C@H](C)C[C@H](C)/C=C/C=C/C=C/1C` [SIROLIMUS]: under 10 µM; `N[C@@H](CC(=O)N1CCn2c(nnc2C(F)(F)F)C1)Cc1cc(F)c(F)cc1F` [SITAGLIPTIN]: 148 µM; `CNC(=O)c1cc(Oc2ccc(NC(=O)Nc3ccc(Cl)c(C(F)(F)F)c3)cc2)ccn1` [SORAFENIB]: under 10 µM.
In the case of `O=C(CCCN1CCC2(CC1)C(=O)NCN2c1ccccc1)c1ccc(F)cc1` [SPIPERONE], the IC50 is under 10 µM.
For `CCOC(=O)[C@H](CCc1ccccc1)N[C@@H](C)C(=O)N1CC2(C[C@H]1C(=O)O)SCCS2` [SPIRAPRIL HYDROCHLORIDE], the half-inhibitory concentration (IC50) came to 47.1 µM.
As to `O=C(O)CCC(=O)Nc1ccc(S(=O)(=O)Nc2nccs2)cc1` [SUCCINYLSULFATHIAZOLE], the IC50 was over 1000 µM.
As to `CC(=O)NS(=O)(=O)c1ccc(N)cc1` [SULFACETAMIDE], the half-inhibitory concentration (IC50) was over 1000 µM.
Next, `Nc1ccc(S(=O)(=O)Nc2ccc(Cl)nn2)cc1` [SULFACHLORPYRIDAZINE]: over 1000 µM; `Nc1ccc(S(=O)(=O)Nc2ncccn2)cc1` [SULFADIAZINE]: over 1000 µM; `COc1cc(NS(=O)(=O)c2ccc(N)cc2)nc(OC)n1` [SULFADIMETHOXINE]: over 1000 µM.
The same measure for `COc1ncnc(NS(=O)(=O)c2ccc(N)cc2)c1OC` [SULFADOXINE]: over 1000 µM; for `Cc1ccnc(NS(=O)(=O)c2ccc(N)cc2)n1` [SULFAMERAZINE]: over 1000 µM; for `Cc1cc(C)nc(NS(=O)(=O)c2ccc(N)cc2)n1` [SULFAMETHAZINE]: over 1000 µM.
Next, `Cc1nnc(NS(=O)(=O)c2ccc(N)cc2)s1` [SULFAMETHIZOLE]: over 1000 µM; `Cc1cc(NS(=O)(=O)c2ccc(N)cc2)no1` [SULFAMETHOXAZOLE]: over 1000 µM; `Cc1noc(NS(=O)(=O)c2ccc(N)cc2)c1C` [SULFISOXAZOLE]: over 1000 µM.
For `CCN1CCCC1CNC(=O)c1cc(S(N)(=O)=O)ccc1OC` (stereo not given) [SULPIRIDE], the IC50 is 276 µM.
The same measure for `CCN(CC)CCNC(=O)c1c(C)[nH]c(/C=C2\C(=O)Nc3ccc(F)cc32)c1C` [SUNITINIB]: 45.8 µM.
Next, `Cc1ccc(C(=O)Nc2ccc(S(=O)(=O)O)c3cc(S(=O)(=O)O)cc(S(=O)(=O)O)c23)cc1NC(=O)c1cccc(NC(=O)Nc2cccc(C(=O)Nc3cc(C(=O)Nc4ccc(S(=O)(=O)O)c5cc(S(=O)(=O)O)cc(S(=O)(=O)O)c45)ccc3C)c2)c1` [SURAMIN]: 107 µM.
`CC[C@H](NC(=O)c1c(O)c(-c2ccccc2)nc2ccccc12)c1ccccc1` [TALNETANT]: the IC50 is under 10 µM.
`O=C1OC(OC(=O)c2cccnc2Nc2cccc(C(F)(F)F)c2)c2ccccc21` (stereo not given) [TALNIFLUMATE]: the IC50 is over 1000 µM.
The same measure for `Cc1scc2c1N(C(=O)CN1CCN(C)CC1)c1ccccc1NC2=O` [TELENZEPINE]: 315 µM; for `CC1(C)CC(O)CC(C)(C)N1[O]` [TEMPOL]: over 1000 µM.
Regarding `CC(C)(C)c1cc(C(C)(C)C)c2oc(C(=O)O)cc(=O)c2c1` [TERBUCROMIL], the half-inhibitory concentration (IC50) is under 10 µM.
Take `CC(C)(C)c1ccc(C(O)CCCN2CCC(C(O)(c3ccccc3)c3ccccc3)CC2)cc1` (stereo not given) [TERFENADINE]: the IC50 is under 17.5 µM.
In the case of `CCCCNc1ccc(C(=O)OCCN(C)C)cc1` [TETRACAINE], the IC50 came to 513 µM.
As to `O=C1C(O)=C(O)C(=O)C(O)=C1O` [TETROQUINONE], the IC50 was over 1000 µM.
The same measure for `O=C1CCC(N2C(=O)c3ccccc3C2=O)C(=O)N1` (stereo not given) [THALIDOMIDE]: over 1000 µM; for `c1ccc2[nH]c(-c3cscn3)nc2c1` [THIABENDAZOLE]: 560 µM.
For the compound `CSc1ccc2c(c1)N(CCC1CCCCN1C)c1ccccc1S2` (stereo not given) [THIORIDAZINE], the IC50 was 24.3 µM.
For the compound `O=C(O)c1ccccc1S` [THIOSALICYLIC ACID], the half-inhibitory concentration (IC50) is over 1000 µM.
Next, `S=P(N1CC1)(N1CC1)N1CC1` [THIOTEPA]: over 1000 µM; `CN1CCN(CC/C=C2/c3ccccc3Sc3ccc(S(=O)(=O)N(C)C)cc32)CC1` [THIOTHIXENE]: 30.4 µM.
As for `CC(C)(C)NC[C@H](O)COc1nsnc1N1CCOCC1` [TIMOLOL], the IC50 is over 1000 µM.
Consider `C[N+]1(C)[C@@H]2C[C@@H](OC(=O)C(O)(c3cccs3)c3cccs3)C[C@H]1[C@@H]1O[C@@H]12` [TIOTROPIUM], for which the half-inhibitory concentration (IC50) was over 1000 µM.
The same measure for `Cc1ccc(S(=O)(=O)NC(=O)NN2CCCCCC2)cc1` [TOLAZAMIDE]: 286 µM; for `Cc1ccc(C(=O)c2cc(O)c(O)c([N+](=O)[O-])c2)cc1` [TOLCAPONE]: under 33.9 µM; for `Cc1cccc(N(C)C(=S)Oc2ccc3ccccc3c2)c1` [TOLNAFTATE]: under 10.3 µM.
`COc1ccc2c(C(=S)N(C)CC(=O)O)cccc2c1C(F)(F)F` [TOLRESTAT]: the IC50 was determined as 185 µM.
The same measure for `CCCc1c(OCCCCc2nnn[nH]2)ccc(C(C)=O)c1O` [TOMELUKAST]: under 10.7 µM; for `CC1(C)O[C@@H]2[C@@H](CO[C@@]3(COS(N)(=O)=O)OC(C)(C)O[C@@H]23)O1` [TOPIRAMATE]: over 1000 µM.
Consider `CCOCn1cnc2c1c(=O)n(CCCCC(C)(C)O)c(=O)n2C` [TORBAFYLLINE], for which the IC50 came to 305 µM.
Next, `Cc1cccc(Nc2ccncc2S(=O)(=O)NC(=O)NC(C)C)c1` [TORSEMIDE]: 131 µM; `N[C@@H]1C[C@H]1c1ccccc1.N[C@H]1C[C@@H]1c1ccccc1` [TRANYLCYPROMINE]: over 1000 µM.
In the case of `CC1=C(/C=C/C(C)=C/C=C/C(C)=C/C(=O)O)C(C)(C)CCC1` [TRETINOIN], the 50% inhibitory concentration (IC50) was under 10 µM.
`C[C@]12C=CC(=O)C=C1CC[C@H]1[C@@H]3C[C@@H](O)[C@](O)(C(=O)CO)[C@@]3(C)C[C@H](O)[C@@]12F` [TRIAMCINOLONE]: the IC50 is 236 µM.
The same measure for `O=C(CCCN1CCC(O)(c2cccc(C(F)(F)F)c2)CC1)c1ccc(F)cc1` [TRIFLUPERIDOL]: 19.7 µM; for `CN(C)CCCN1c2ccccc2Sc2ccc(C(F)(F)F)cc21` [TRIFLUPROMAZINE]: 39 µM; for `O=c1[nH]c(=O)n([C@H]2C[C@H](O)[C@@H](CO)O2)cc1C(F)(F)F` [TRIFLURIDINE]: over 1000 µM.
Next, `CCC(COC(=O)c1cc(OC)c(OC)c(OC)c1)(c1ccccc1)N(C)C` (stereo not given) [TRIMEBUTINE]: under 10 µM; `COc1cc(Cc2cnc(N)nc2N)cc(OC)c1OC` [TRIMETHOPRIM]: 833 µM; `COc1cc(C(=O)N2CCOCC2)cc(OC)c1OC` [TRIMETOZINE]: over 1000 µM.
The same measure for `Cc1cc2cc3c(C)cc(=O)oc3c(C)c2o1` [TRIOXSALEN]: over 525 µM.
As for `Cc1ccc(/C(=C\CN2CCCC2)c2ccccn2)cc1` [TRIPROLIDINE], the IC50 came out at 291 µM.

The term IC50 denotes the point on the concentration scale where inhibition reaches its midpoint.
